According to ChEMBL document CHEMBL5356971, “Optimization of the Antibacterial Spectrum and the Developability Profile of the Novel-Class Natural Product Corramycin” (J Med Chem, 2023):
≈ marks a conversion by molar mass, not a printed value. Calls of active or inactive are those of the source. No cut-off for these calls is given here.

What was measured:
[1] = Metabolic stability in mouse kidney assessed as parent compound remaining measured after 4 hrs by UPLC-MS analysis; assay type: ADME, tissue-based; conditions: read-out: Stability
[2] = Half life in Swiss mouse at 3 mg/kg, iv measured upto 24 hrs by LC-MS/MS analysis; assay type: ADME, organism-based; conditions: in vivo
Escherichia coli [3] = experiment: Antibacterial activity against multidrug-resistant Escherichia coli MG1655 assessed as bacterial growth inhibition incubated for 20 to 22 hrs by CLSI based analysis; assay type: functional; conditions: time 20-22 hrs
Escherichia coli [4] = experiment: Antibacterial activity against multidrug-resistant Escherichia coli IR45 assessed as bacterial growth inhibition incubated for 20 to 22 hrs by CLSI based analysis; assay type: functional; conditions: time 20-22 hrs
[5] = AUClast in Swiss mouse Lung at 3 mg/kg, iv measured upto 24 hrs by LC-MS/MS analysis; assay type: ADME, organism-based; parameters: time < 24 hrs, dose 3 mg/kg, route iv
Escherichia coli [6] = experiment: Antibacterial activity against […] assessed as bacterial growth inhibition incubated for 20 to 22 hrs by CLSI based analysis; assay type: functional; conditions: time 20-22 hrs
Escherichia coli [7] = experiment: Antibacterial activity against Escherichia coli ATCC 25922 infected in Swiss albino mouse thigh infection model at 10 mg/kg, iv measured after 1 hr; assay type: functional, organism-based
[8] = Cytotoxicity against human HEK cells assessed as inhibition of cell growth at 30 uM incubated for 40 hrs by celltiterglo assay; assay type: toxicity, cell-based
Klebsiella pneumoniae [9] = experiment: Antibacterial activity against multidrug-resistant Klebsiella pneumoniae G199 assessed as bacterial growth inhibition incubated for 20 to 22 hrs by CLSI based analysis; assay type: functional; conditions: time 20-22 hrs
Escherichia coli [10] = experiment: Antibacterial activity against Escherichia coli ATCC 35218 infected in Swiss albino mouse model of Septicaemia infection assessed as log reduction in Septicaemia in blood at 1 mg/kg , iv preincubated for 4 hrs followed by bacterial infection and measured after 4 hrs post infection; assay type: functional; conditions: time 8 hrs
Escherichia coli [11] = experiment: Antibacterial activity against multidrug-resistant Escherichia coli BAA2469 assessed as bacterial growth inhibition incubated for 20 to 22 hrs by CLSI based analysis; assay type: functional; conditions: time 20-22 hrs
Escherichia coli [12] = experiment: Antibacterial activity against Escherichia coli UT189 infected in Swiss albino mouse model of urinary tract infection assessed as log reduction in bacteremia in kidney at 10 mg/kg, iv pre-infected with bacteria for 24 hrs followed by compound treatment for every 24 hrs for 3 days; assay type: functional; conditions: time 3 day
Proteus mirabilis = experiment: Antibacterial activity against multidrug-resistant Proteus mirabilis ATCC 7002 assessed as bacterial growth inhibition incubated for 20 to 22 hrs by CLSI based analysis; assay type: functional; conditions: time 20-22 hrs
[13] = Aqueous solubility of compound at pH 4.5; assay type: physicochemical; conditions: buffer
Escherichia coli [14] = experiment: Antibacterial activity against Escherichia coli UT189 infected in Swiss albino mouse model of urinary tract infection assessed as log reduction in bacteremia in urine at 10 mg/kg, iv pre-infected with bacteria for 24 hrs followed by compound treatment for every 24 hrs for 3 days; assay type: functional; conditions: time 3 day
Klebsiella pneumoniae [15] = experiment: Antibacterial activity against Klebsiella pneumoniae ATCC 13883 harboring SbmA assessed as reduction in microbial growth incubated for 20 to 22 hrs by CLSI based analysis; assay type: functional; conditions: time 20-22 hrs
Acinetobacter baumannii = experiment: Antibacterial activity against multidrug-resistant Acinetobacter baumannii R831 assessed as bacterial growth inhibition incubated for 20 to 22 hrs by CLSI based analysis; assay type: functional; conditions: time 20-22 hrs
[16] = Ratio of drug concentration in mouse blood to plasma; assay type: ADME, cell-free
[17] = AUClast in Swiss mouse Kidney at 3 mg/kg, iv measured upto 24 hrs by LC-MS/MS analysis; assay type: ADME, organism-based; parameters: dose 3 mg/kg, time < 24 hrs, route iv

CO[C@@H](CNC(=O)[C@H](NC(=O)[C@H](O)[C@H](C)O)[C@H](O)c1cncn1C)[C@H](O)[C@H](O)C(=O)N(C)[C@@H](Cc1ccccc1)C(=O)NCC(=O)N[C@H](C(=O)N[C@@H](CO)C(=O)N[C@H](C(=O)N[C@H](C(=O)N[C@@H](CC(=O)O)C(=O)N1CCC[C@H]1C(=O)NCc1cc(=O)c(O)cn1O)C(C)(C)C)C(C)(C)O)C(C)(C)O
remaining at 4 h [1]: 91%
half-life [2]: 15 min
MIC (Escherichia coli [3]): 0.03 µg/mL (≈ 0.0207 µM)
MIC (Escherichia coli [4]): 2 µg/mL (≈ 1.38 µM)
AUC(0-t) at 24 h [5]: 1010 ng·h/mL
MIC (Escherichia coli [6]): 0.06 µg/mL (≈ 0.0415 µM)
Activity (Escherichia coli [7]): Active
Activity [8]: Non-Toxic
MIC (Klebsiella pneumoniae [9]): 0.06 µg/mL (≈ 0.0415 µM)
Activity (Escherichia coli [10]): -3.8 log10CFU
MIC (Escherichia coli [11]): 0.06 µg/mL (≈ 0.0415 µM)
log(activity) (Escherichia coli [12]): 3.6
MIC (Proteus mirabilis): 0.12 µg/mL (≈ 0.0829 µM)
solubility [13]: 8100 µg/mL (≈ 5600 µM)
log(activity) (Escherichia coli [14]): 4.7
MIC (Klebsiella pneumoniae [15]): 16 µg/mL
MIC (Acinetobacter baumannii): 2 µg/mL (≈ 1.38 µM)
blood plasma ratio [16]: 4.5
AUC(0-t) at 24 h [17]: 7150 ng·h/mL
